Laboratory results reported in patent publication US10213428B2, “(4-((3R,4R)-3-methoxytetrahydro-pyran-4-ylamino)piperidin-1-yl)(5-methyl-6-(((2R,6S)-6-(p-tolyl)tetrahydro-2H-pyran-2-yl)methylamino)pyrimidin-4-yl)methanone citrate” (Centrexion Therapeutics Corporation, priority 2015, dated 2019).

Key:
[1] = Oral pharmacokinetics in mouse; format: in vivo, BALB/c mice; details: oral dose 20 μmol/kg
Excerpt: (§1) The pharmacokinetics of the test compound following single intravenous (IV) or oral (PO) doses were examined in • female BALB/c mice (average weight: 25 g) • male Wistar(Han) rats (average weight: 260 g) • male and female Göttingen Minipigs (average weight: 24 kg) • male beagle dogs (average weight: 15 kg) All non-rodent species were fasted overnight prior to dosing, while mice and rats had food and water available ad libitum. The p.o. dose of the compound was usually administered as suspension in 0.5% Natrosol or as a 0.5% Natrosol/0.015% Tween 80 suspension. For i.v. dosing purposes, the doses were applied as a solution in 0.9% NaCL, or as a solution containing 9.1% HP-beta Cyclodextrin in water.
(§2) Blood was collected by venous sampling and soaking of the blood in EDTA coated tubes. Samples were collected for up to 48 h after administration of the test compound. Plasma was then separated by centrifugation (5 min by approximately 9000 g at 4° C.). For determination of the test compound, plasma was transferred into PCR plates. All samples were stored at approximately −20° C. until bioanalytics. The test compound concentrations in plasma were determined by HPLC MS/MS. The lower limit of quantification was between 0.5 nmol/L and 1 nmol/L.

[2] = tested on: hepatocytes; assay: In vitro metabolic stability in hepatocyte incubations, minipig; format: in vitro ADME; details: Minipig hepatocytes, 1 μM
Experimental: (§3) Metabolic degradation of the test compound is assayed in a hepatocyte suspension. Hepatocytes are incubated in an appropriate buffer system. Following a (typically) 30 min preincubation in an incubator (37° C., 10% CO2) 5 μL of test compound solution (1 μM) are added into 395 μL hepatocyte suspension (cell density in the range 0.25-5 Mio cells/mL, typically 1 Mio cells/mL, final DMSO concentration 0.05%). The cells are incubated for six hours (incubator, orbital shaker) and samples (25 μL) are taken at 0, 0.5, 1, 2, 4 and 6 hours. Samples are transferred into acetonitrile and pelleted by centrifugation (5 min). The supernatant is transferred to a new 96-deepwell plate, evaporated under nitrogen and resuspended. Decline of parent compound is analyzed by HPLC-MS/MS. CLint is calculated as follows CL_INTRINSIC=Dose/AUC=(CO/CD)/(AUD+clast/k)×1000/60. […]

[3] = as above; format: in vitro ADME; details: hepatocytes (suspension); Minipig; predicted from hepatocyte CL intrinsic, well stirred model
Experimental: as §3

[4] = Intravenous pharmacokinetics in mouse; format: in vivo, BALB/c mice; details: IV dose 10 μmol/kg, mean values
Excerpt: as §1, §2

[5] = tested on: hepatocytes; assay: In vitro metabolic stability in hepatocyte incubations, human; format: in vitro ADME; details: Human hepatocytes, 1 μM
Experimental: as §3

[6] = as above; format: in vitro ADME; details: hepatocytes (suspension); Human; predicted from hepatocyte CL intrinsic, well stirred model; read-out: CL, in vivo
Experimental: as §3

[7] = tested on: plasma protein; assay: In vitro plasma protein binding (equilibrium dialysis), mouse; format: in vitro ADME; details: 1.0 μM, dialysis 2 hours at 37° C.
Experimental: (§4) Dianorm Teflon dialysis cells (micro 0.2) are used. Each cell consists of a donor (i.e., buffer chamber) and an acceptor chamber (i.e., plasma chamber), separated by an ultrathin semipermeable membrane with a 5 kDa molecular weight cutoff. Stock solutions for each test compound are prepared in DMSO at 1 mM and diluted to a final concentration of 1.0 μM. Aliquots of 200 μL dialysis buffer (100 mM potassium phosphate, pH 7.4) are dispensed into the buffer chamber. Aliquots of 200 μL test compound dialysis solution are dispensed into the plasma chambers. Incubation is carried out for 2 hours under rotation at 37° C. Then, the dialysate is transferred into reaction tubes. The tubes for the buffer fraction contain 0.2 mL acetonitril/water (80/20 volume/volume). Aliquots of 25 μL of the plasma dialysate are transferred into deep well plates and mixed with 25 μL acetonitril/water (80/20 volume/volume), 25 μL buffer, 25 μL calibration solution and 25 μL Internal Standard solution. Protein precipitation is done by adding 200 μL acetonitrile. Aliquots of 50 μL of the buffer dialysate are transferred into deep well plates and mixed with 25 μL blank plasma, 25 μL Internal Standard solution and 200 μL acetonitril. Percent bound is calculated with the formula: % bound=(plasma concentration−buffer concentration/plasma concentration)×100.

[8] = as above; format: in vitro ADME; details: pH 7.4, dialysis 2 hours at 37° C., read-out: Fraction bound (converted)
Experimental: as §4

[9] = Oral pharmacokinetics in rat; format: in vivo, Wistar(Han) rats; details: oral dose 20 μmol/kg of compound I
Excerpt: as §1, §2

[10] = female, BALB/c, plasma, 20 umol/kg, mean values
[11] = female, BALB/c, plasma, 10 umol/kg
[12] = male, Wistar(Han), plasma, 20 umol/kg, mean values

SMILES: CO[C@H]1COCC[C@H]1NC1CCN(C(=O)c2ncnc(NC[C@H]3CCC[C@@H](c4ccc(C)cc4)O3)c2C)CC1 [compound I, (4-((3R,4R)-3-methoxytetrahydro-pyran-4-ylamino)piperidin-1-yl)(5-methyl-6-(((2R,6S)-6-(p-tolyl)tetrahydro-2H-pyran-2-yl)methylamino)pyrimidin-4-yl)methanone]
- AUC(0-inf) [1, 10]: 3.16 µM·h
- Cmax [1, 10]: 974 nM
- Tmax [1, 10]: 1 h
- MRTtot ([1]; mean values): 3.99 h
- F ([1]; oral bioavailability): 79%
- CL intrinsic, in vitro [2]: 2.73 μL/min/10e6 cells
- predicted in vivo clearance at 1 μM [3]: 6.8 mL/min/kg
- MRTdisp [4]: 0.623 h
- AUC(0-inf) [4, 11]: 1.99 µM·h
- clearance [4, 11]: 86 mL/min/kg
- Vd ([4]; female, BALB/c, plasma, 10 umol/kg, read-out: Vss): 3.29 L/kg
- CL intrinsic, in vitro [5]: 4.11 μL/min/10e6 cells
- CLhep predicted at 1 μM [6]: 7.9 mL/min/kg
- Fraction unbound [7]: 4.9%
- fraction unbound at 2 h, 1 μM [8]: 0.049
- AUC(0-inf) [9, 12]: 2.27 µM·h
- Cmax [9, 12]: 580 nM
- Tmax [9, 12]: 1.5 h
- MRTtot ([9]; mean values): 5.49 h
- F ([9]; oral bioavailability): 38%
